Molecular target: T1, human FP receptor (Homo sapiens, UniProt P43088)
T1 construct: expressed in transfected cells; host or cells: HEK 293 (stably transfected)
Assay: Total intracellular inositol phosphate (InsP) accumulation in HEK 293 cells stably transfected with the human FP receptor
Type: cell-based
Conditions: FIG. 2; HEK 293 cells stably transfected with human FP receptor; free acid forms; rank among the prostaglandin analogs tested
From the text: An exemplary assay method may be described that correlates the ability of test compounds (FP receptor agonists) to induce hair growth with the ability of an established FP receptor agonist, in this case Bimatoprost free acid, to activate the FP receptor. The dose-dependent release of Inositol triphosphate by test compounds compared to the dose-dependent response of Bimatoprost free acid, an established eye lash-enhancing compound, may provide a structure activity relationship that may be used to predict the degree to which a given compound will promote eye lash growth.

T1 sequence (P43088 whole entry): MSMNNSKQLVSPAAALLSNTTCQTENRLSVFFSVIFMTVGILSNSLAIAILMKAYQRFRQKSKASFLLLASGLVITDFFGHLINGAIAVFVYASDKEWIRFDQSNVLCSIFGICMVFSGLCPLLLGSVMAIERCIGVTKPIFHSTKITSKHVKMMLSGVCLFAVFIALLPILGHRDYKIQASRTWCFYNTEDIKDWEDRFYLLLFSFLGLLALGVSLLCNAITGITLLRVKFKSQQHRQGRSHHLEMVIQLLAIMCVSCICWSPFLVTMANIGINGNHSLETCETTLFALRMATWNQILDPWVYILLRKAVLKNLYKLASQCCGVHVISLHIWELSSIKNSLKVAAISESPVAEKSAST

dose-dependent release of inositol triphosphate	SMILES
highest	O=C(O)CCCC=CCC1C(O)CC(O)C1C=CC(O)COc1ccccc1 (stereo not drawn) [16-phenoxy tetranor PGF2α analog, 16-phenoxy tetranor PGF2α]
lowest	O=C(O)CCC/C=C\C[C@@H]1[C@@H](/C=C/[C@@H](O)COc2cccc(C(F)(F)F)c2)[C@H](O)C[C@@H]1O [(+) fluprestonol]

Source: patent US20090088473A1, “METHOD FOR SCREENING OF PROSTAGLANDIN COMPOUNDS COMPRISING AN OPTIMAL FORMULATION FOR THE ENHANCEMENT OF HAIR GROWTH AND THE STIMULATION OF FOLLICULAR ANAGEN AND FORMULATIONS RESULTING THEREFROM” (CAYMAN CHEMICAL COMPANY, priority 2007, published 2009)
